Patent publication US11667645B2, “Granzyme B directed imaging and therapy” (CytoSite Biopharma Inc., priority 2018, dated 2023)

These molecules were tested against Granzyme B (human lymphocytes) (Homo sapiens (Human), UniProt P10144) (assay: human Granzyme B biochemical assay). Settings: Granzyme B (human lymphocytes) 5 nM, substrate Ac-IETD-AFC 200 μM, Cpd incubation with enzyme 30 mins, 22° C., read time 60 mins; read-out: IC50.
Procedure, shortened: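 Enzyme (10 nM working stock, assay buffer with 0.1% BSA) pre-incubated with compound for 30 min at 22 °C, then Ac-IETD-AFC (800 µM working stock) added for 60 min at 22 °C in the dark. Fluorescence read at Ex 400/Em 505 nm; 8-point 3.16-fold series (40 µM top working stock); IC50 from % inhibition versus standard-inhibitor and DMSO controls.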

Granzyme B (human lymphocytes), sequence (P10144 21-247): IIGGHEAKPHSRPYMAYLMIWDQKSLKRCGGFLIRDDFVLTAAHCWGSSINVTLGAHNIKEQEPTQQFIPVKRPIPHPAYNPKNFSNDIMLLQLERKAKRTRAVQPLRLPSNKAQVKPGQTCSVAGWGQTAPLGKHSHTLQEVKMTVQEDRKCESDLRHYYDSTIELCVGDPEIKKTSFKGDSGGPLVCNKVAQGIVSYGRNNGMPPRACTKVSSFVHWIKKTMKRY

Row | Structure (SMILES) | IC50
1 | CCC(CC)[C@H](NC(C)=O)C(=O)N[C@H]1CCc2cccc3c2N(C1=O)[C@H](C(=O)NCc1c[nH]nn1)C3 [Compound C074, (2S,5S)-5-((S)-2-Acetylamino-3-ethyl-pentanoylamino)-4-oxo-1,2,4,5,6,7-hexahydro-azepino[3,2,1-hi]indole-2-carboxylic acid (1H-[1,2,3]triazol-4-ylmethyl)-amide] | 1 to 300 nM
2 | O=C(Cc1csc2ccccc12)N[C@H](C(=O)N[C@H]1CCc2cccc3c2N(C1=O)[C@H](C(=O)NCc1c[nH]nn1)C3)C1CCCC1 [Compound C075, (2S,5S)-5-[(S)-2-(2-Benzo[b]thiophen-3-yl-acetylamino)-2-cyclopentyl-acetylamino]-4-oxo-1,2,4,5,6,7-hexahydro-azepino[3,2,1-hi]indole-2-carboxylic acid (1H-[1,2,3]triazol-4-ylmethyl)-amide] | 1 to 300 nM
3 | O=C(N[C@H](C(=O)N[C@H]1CCc2cccc3c2N(C1=O)[C@H](C(=O)NCc1c[nH]nn1)C3)C1CCCC1)c1ccccc1 [Compound C076, (2S,5S)-5-((S)-2-Benzoylamino-2-cyclopentyl-acetylamino)-4-oxo-1,2,4,5,6,7-hexahydro-azepino[3,2,1-hi]indole-2-carboxylic acid (1H-[1,2,3]triazol-4-ylmethyl)-amide] | 1 to 300 nM
4 | CC(=O)N[C@H](C(=O)N[C@H]1CCc2cccc3c2N(C1=O)[C@H](C(=O)NCc1c[nH]nn1)C3)C1CCCC1 [Compound C077, (2S,5S)-5-((S)-2-Acetylamino-2-cyclopentyl-acetylamino)-4-oxo-1,2,4,5,6,7-hexahydro-azepino[3,2,1-hi]indole-2-carboxylic acid (1H-[1,2,3]triazol-4-ylmethyl)-amide] | 1 to 300 nM
5 | O=C(Cc1csc2ccccc12)N[C@H](C(=O)N[C@H]1CCc2cccc3c2N(C1=O)[C@H](C(=O)NCc1c[nH]nn1)C3)C1CCCCC1 [Compound C078, (2S,5S)-5-[(S)-2-(2-Benzo[b]thiophen-3-yl-acetylamino)-2-cyclohexyl-acetylamino]-4-oxo-1,2,4,5,6,7-hexahydro-azepino[3,2,1-hi]indole-2-carboxylic acid (1H-[1,2,3]triazol-4-ylmethyl)-amide] | 301 to 1000 nM
6 | O=C(N[C@H](C(=O)N[C@H]1CCc2cccc3c2N(C1=O)[C@H](C(=O)NCc1c[nH]nn1)C3)C1CCCCC1)c1ccccc1 [Compound C079, (2S,5S)-5-((S)-2-Benzoylamino-2-cyclohexyl-acetylamino)-4-oxo-1,2,4,5,6,7-hexahydro-azepino[3,2,1-hi]indole-2-carboxylic acid (1H-[1,2,3]triazol-4-ylmethyl)-amide] | 1000 to 5000 nM
7 | CC(=O)N[C@H](C(=O)N[C@H]1CCc2cccc3c2N(C1=O)[C@H](C(=O)NCc1c[nH]nn1)C3)C1CCCCC1 [Compound C080, (2S,5S)-5-((S)-2-Acetylamino-2-cyclohexyl-acetylamino)-4-oxo-1,2,4,5,6,7-hexahydro-azepino[3,2,1-hi]indole-2-carboxylic acid (1H-[1,2,3]triazol-4-ylmethyl)-amide] | 301 to 1000 nM
8 | CC(=O)N[C@H](C(=O)N[C@H]1CCc2cccc3c2N(C1=O)[C@H](C(=O)NCc1c[nH]nn1)C3)C1CC1 [Compound C081, (2S,5S)-5-((S)-2-Acetylamino-2-cyclopropyl-acetylamino)-4-oxo-1,2,4,5,6,7-hexahydro-azepino[3,2,1-hi]indole-2-carboxylic acid (1H-[1,2,3]triazol-4-ylmethyl)-amide] | 301 to 1000 nM
9 | O=C(N[C@H](C(=O)N[C@H]1CCc2cccc3c2N(C1=O)[C@H](C(=O)NCc1c[nH]nn1)C3)C1CC1)c1ccccc1 [Compound C082, (2S,5S)-5-((S)-2-Benzoylamino-2-cyclopropyl-acetylamino)-4-oxo-1,2,4,5,6,7-hexahydro-azepino[3,2,1-hi]indole-2-carboxylic acid (1H-[1,2,3]triazol-4-ylmethyl)-amide] | 301 to 1000 nM
10 | CC(=O)N[C@H](C(=O)N[C@H]1CCc2cccc3c2N(C1=O)[C@H](C(=O)NCc1c[nH]nn1)C3)C1CCC1 [Compound C083, (2S,5S)-5-((S)-2-Acetylamino-2-cyclobutyl-acetylamino)-4-oxo-1,2,4,5,6,7-hexahydro-azepino[3,2,1-hi]indole-2-carboxylic acid (1H-[1,2,3]triazol-4-ylmethyl)-amide] | 1 to 300 nM
11 | O=C(N[C@H](C(=O)N[C@H]1CCc2cccc3c2N(C1=O)[C@H](C(=O)NCc1c[nH]nn1)C3)C1CCC1)c1ccccc1 [Compound C084, (2S,5S)-5-((S)-2-Benzoylamino-2-cyclobutyl-acetylamino)-4-oxo-1,2,4,5,6,7-hexahydro-azepino[3,2,1-hi]indole-2-carboxylic acid (1H-[1,2,3]triazol-4-ylmethyl)-amide] | 1 to 300 nM
12 | CC(C)[C@H](NC(=O)c1ccccc1)C(=O)N[C@H]1COc2cccc3c2N(C1=O)[C@H](C(=O)NCc1c[nH]nn1)C3 [Compound C100, (1S,8S)-8-((S)-2-Benzoylamino-3-methyl-butyrylamino)-9-oxo-1,2,8,9-tetrahydro-7H-6-oxa-9a-aza-benzo[cd]azulene-1-carboxylic acid (1H-[1,2,3,]triazol-4-ylmethyl)-amide] | 1 to 300 nM

Now from value to molecule:

Row | IC50 | Structure (SMILES)
13 | 1000 to 5000 nM | CC(=O)N[C@H](C(=O)N[C@H]1CCc2cccc3c2N(C1=O)[C@H](C(=O)NCC(=O)O)C3)C(C)C [Compound C085, {[(2S,5S)-5-((S)-2-Acetylamino-3-methyl-butyrylamino)-4-oxo-1,2,4,5,6,7-hexahydro-azepino[3,2,1-hi]indole-2-carbonyl]-amino}-acetic acid]
14 | > 5000 nM | COC(=O)CNC(=O)[C@@H]1Cc2cccc3c2N1C(=O)[C@@H](NC(=O)[C@@H](NC(C)=O)C(C)C)CC3 [Compound C086, {[(2S,5S)-5-((S)-2-Acetylamino-3-methyl-butyrylamino)-4-oxo-1,2,4,5,6,7-hexahydro-azepino[3,2,1-hi]indole-2-carbonyl]-amino}-acetic acid methyl ester]
15 | > 5000 nM | CC(=O)N[C@H](C(=O)N[C@H]1CCc2cccc3c2N(C1=O)[C@H](C(=O)N[C@H](C)C(=O)O)C3)C(C)C [Compound C087, (R)-2-{[(2S,5S)-5-((S)-2-Acetylamino-3-methyl-butyrylamino)-4-oxo-1,2,4,5,6,7-hexahydro-azepino[3,2,1-hi]indole-2-carbonyl]-amino}-propionicacid]
16 | > 5000 nM | COC(=O)[C@@H](C)NC(=O)[C@@H]1Cc2cccc3c2N1C(=O)[C@@H](NC(=O)[C@@H](NC(C)=O)C(C)C)CC3 [Compound C088, (R)-2-{[(2S,5S)-5-((S)-2-Acetylamino-3-methyl-butyrylamino)-4-oxo-1,2,4,5,6,7-hexahydro-azepino[3,2,1-hi]indole-2-carbonyl]-amino}-propionicacid methyl ester]
17 | > 5000 nM | CC(=O)N[C@H](C(=O)N[C@H]1CCc2cccc3c2N(C1=O)[C@H](C(=O)N[C@@H](C)C(=O)O)C3)C(C)C [Compound C089, (S)-2-{[(2S,5S)-5-((S)-2-Acetylamino-3-methyl-butyrylamino)-4-oxo-1,2,4,5,6,7-hexahydro-azepino[3,2,1-hi]indole-2-carbonyl]-amino}-propionicacid]
18 | > 5000 nM | COC(=O)[C@H](C)NC(=O)[C@@H]1Cc2cccc3c2N1C(=O)[C@@H](NC(=O)[C@@H](NC(C)=O)C(C)C)CC3 [Compound C090, (S)-2-{[(2S,5S)-5-((S)-2-Acetylamino-3-methyl-butyrylamino)-4-oxo-1,2,4,5,6,7-hexahydro-azepino[3,2,1-hi]indole-2-carbonyl]-amino}-propionic acid methyl ester]
19 | > 5000 nM | COC(=O)[C@H](CO)NC(=O)[C@@H]1Cc2cccc3c2N1C(=O)[C@@H](NC(=O)[C@@H](NC(C)=O)C(C)C)CC3 [Compound C091, (S)-2-{[(2S,5S)-5-((S)-2-Acetylamino-3-methyl-butyrylamino)-4-oxo-1,2,4,5,6,7-hexahydro-azepino[3,2,1-hi]indole-2-carbonyl]-amino}-3-hydroxy-propionic acid methyl ester]
20 | > 5000 nM | CC(=O)N[C@H](C(=O)N[C@H]1CCc2cccc3c2N(C1=O)[C@H](C(=O)N[C@@H](CC(=O)O)C(=O)O)C3)C(C)C [Compound C092, (S)-2-{[(2S,5S)-5-((S)-2-Acetylamino-3-methyl-butyrylamino)-4-oxo-1,2,4,5,6,7-hexahydro-azepino[3,2,1-hi]indole-2-carbonyl]-amino}-succinic acid]
21 | > 5000 nM | COC(=O)C[C@H](NC(=O)[C@@H]1Cc2cccc3c2N1C(=O)[C@@H](NC(=O)[C@@H](NC(C)=O)C(C)C)CC3)C(=O)OC [Compound C093, (S)-2-{[(2S,5S)-5-((S)-2-Acetylamino-3-methyl-butyrylamino)-4-oxo-1,2,4,5,6,7-hexahydro-azepino[3,2,1-hi]indole-2-carbonyl]-amino}-succinic acid dimethyl ester]
22 | > 5000 nM | CC(=O)N[C@H](C(=O)N[C@H]1CCc2cccc3c2N(C1=O)[C@H](C(=O)N[C@@H](CCC(=O)O)C(=O)O)C3)C(C)C [Compound C094, (S)-2-{[(2S,5S)-5-((S)-2-Acetylamino-3-methyl-butyrylamino)-4-oxo-1,2,4,5,6,7-hexahydro-azepino[3,2,1-hi]indole-2-carbonyl]-amino}-pentanedioic acid]
23 | > 5000 nM | COC(=O)CC[C@H](NC(=O)[C@@H]1Cc2cccc3c2N1C(=O)[C@@H](NC(=O)[C@@H](NC(C)=O)C(C)C)CC3)C(=O)OC [Compound C095, (S)-2-{[(2S,5S)-5-((S)-2-Acetylamino-3-methyl-butyrylamino)-4-oxo-1,2,4,5,6,7-hexahydro-azepino[3,2,1-hi]indole-2-carbonyl]-amino}-pentanedioic acid dimethyl ester]
